Source: patent publication US11512085B2, “Heteroaryl compound having drug activity” (SHANGHAI DUDE MEDICAL TECHNOLOGY CO., LTD, priority 2017, dated 2022)

Experiments:
p-PLCγ/t-PLCγ = test: Western blotting of p-PLCγ/t-PLCγ in anti-IgG stimulated DOHH2 cells; assay type: cell-based; settings: DOHH2 cells, 5, 100, 2000 nM, 1 h, anti-IgG stimulation
Method: Biological Embodiment 4: Analysis of Influences of Test Compounds on p-Btk/t-Btk, p-PLCγ/t-PLCγ and p-Erk/t-Erk Expression Levels of DOHH2 Cells by Virtue of Western Blotting
1) DOHH2 cells on a logarithmic phase were collected;
2) a cell concentration was adjusted to a needed concentration;
3) 2 ml of cell suspension was added into a 6-well plate for performing culture, three different concentrations, that is, 5 nM, 100 nM and 2000 nM, of test samples were respectively set, and each concentration was repeated once;
4) test samples were added into plate wells, and DMSO served as control, wherein a final concentration of the DMSO was 0.1%;
5) culture was performed for 1 h; and […]
6. protein extraction and quantification […]
5) a protein concentration was determined by using Pierce™ BCA Protein Assay Kit; and
6) according to BCA protein quantification results, all samples were diluted to the same final concentration by adding 4×LDS sample buffer and 10× sample reducing agent into the RIPA buffer solution, and the solution was heated at 100° C. for 10 min. […]
10) chemiluminiscence was detected by Tanon 5200 multi.
7. Quantification of strip intensity
Intensity of each strip was quantified by using Image quant densitometry software. […]

SD rats = test: Single dose toxicity test in SD rats; assay type: in vivo
Method: Biological Embodiment 6: Single Dose Toxicity Test
During the experiment, all the animals were subjected to detailed clinical observation once (2 hours after drug administration) on the Day 1 and once every day on Day 2-14; the animals were weighed on the day of animal grouping, on the day of drug administration (before drug administration), Day 4, 7, 10 and 13 after drug administration and on the day of dissection, and weights were recorded; food consumption per cage was weighed within 24 hours on Day 2, 6, 9 and 13 in the experiment and recorded; and all live animals were subjected to gross anatomy examination on Day 15.
1. Preparation of Test and Control Products
a solvent control group: 30 ml of solvents (0.5% MC (methylcellulose), 0.4% of cremophor EL and 0.1% of sodium lauryl sulfate) were sucked into a suitable container, the pH value was measured as 7, and a colorless clarified solution was obtained.
(§1) Compound 6 (400 mg/kg): 1507.1 mg of the compound 6 was weighed into a suitable container, solvents (0.5% MC (methylcellulose), 0.4% cremophor EL and 0.1% sodium lauryl sulfate) were added into the container to reach a constant volume of 30 ml, ultrasonic treatment was performed for 20 minutes, stirring was performed for 15 minutes, a mixing instrument was used for 5 minutes, the pH value was measured as 7, and white suspension was obtained.
as §1, with “(1000” for “(400”, “3765.5” for “1507.1”, “25” for “20”, “21” for “15”, “obtained. […]” for “obtained.”

Mino = test: In vitro tumor cell proliferation (CellTiter-Glo), Mino; assay type: cell-based; settings: Homo sapiens, 72 h, read-out: Growth IC50
Method: Biological Embodiment 8: Study on Effects of Active Compounds for Inhibiting In Vitro Tumor Cell Proliferation
Promega CellTiter-Glo cell activity detection kit by luminescence (Promega-G7573).
Tumor cell lines were cultured in a 5% of CO2 incubator at 37° C. according to respective culture conditions; and periodic passage was performed, and cells positioned in a logarithmic phase were taken for planking.
3) 90 μL of cell suspension was added into each well of the culture plate, and a culture solution containing no cell was added into blank control;
4) the culture plate was cultured overnight in the 5% of CO2 incubator having relative humidity of 100% at 37° C.
Preparation of a 400× compound storage plate: the compound was diluted from the maximum concentration gradient to the lowest concentration with DMSO. […]
The following steps were performed according to the specification of the Promega CellTiter-Glo cell activity detection kit by luminescence (Promega-G7573). […]
9) the luminescence signal was detected on the 2104 EnVision plate reader.

C=CC(=O)NN1CCCC(n2nc(-c3ccc(Oc4ccccc4)cc3)c3c(N)ncnc32)C1 (centres unmarked) [Embodiment 6, N-(3-(4-amino-3-(4-phenoxyphenyl)-1H-pyrazolo[3,4-D]pyrimidine-1-yl)-1-piperidyl)-acrylamide]
relative level of p-PLCγ/t-PLCγ (p-PLCγ/t-PLCγ): obviously decreased | Maximum tolerance dosage (SD rats; SD rats, oral, once, 0, 400, 1000, 2000 mg/kg): 2000 mg/kg | Gross anatomy (SD rats; rat, in vivo): no abnormality | Results (single dose toxicity) (SD rats; rat, in vivo): No animal died; all tissues | IC50 (Mino): 2170 nM
